Experimental data reported in patent US20240309360A1, “TRANS-ACTIVATORS AND METHODS AND USE THEREOF” (THE GOVERNING COUNCIL OF THE UNIVERSITY OF TORONTO, priority 2021, published 2024).

Columns and labels:
Assay type in all cases: cell-based, human; call rule not given here
[1] = test system: transcriptional activity of 83 transcriptional regulators on the EGFP reporter; assay: Tethered reporter assays in the presence of inhibitors
Description: To functionally investigate the connection between transcriptional activators and co-factors, a panel of 83 robust activators was arrayed. Their activation potential was tested using the reporter assay, but now in the presence of small-molecule inhibitors targeting multiple transcriptional co-regulators. Three kinase inhibitors targeting transcriptional kinases (flavopiridol for CDK9, CX-4945 for casein kinase 2, and AZ191 for DYRK1A and DYRK1B), and two compounds inhibiting transcriptional co-factors (A-485 for CBP/p300, and JQ1 for BET family bromodomain proteins) were employed.
(§1) Arrayed recruitment assays. Reporter cells stably co-expressing ABI-dCas9 and TetO gRNA were seeded either on 48-well or 96-well plates (Sarstedt) to reach 50-70% confluency on the day of transfection. 150 ng of each construct to be tested was transfected with polyethylenimine (PEI) at a ratio of 0.6 μl reagent. The day after transfection, recruitment was induced by treatment with ABA (100 μM). […] Inhibitors were dissolved in DMSO to a stock concentration of 10 mM. The final concentrations used were 100 nM for flavopiridol, 300 nM for JQ1, 1 μM for A-485, 2.5 μM for CX-4945 and 3 μM for AZ191. All inhibitors were a kind gift from the Structural Genomics Consortium (SGC). 48 hours after induction, cells were dissociated and resuspended in flow buffer using a liquid handing robot (TECAN) and analyzed by LSR Fortessa (BD). Cells were gated on high EBFP2 and RFP as a measure of gRNA and transfection control, respectively. Flow cytometry data was analyzed using FlowJo (v10).

[2] = test system: EGFP reporter (7×TetO array, basal CMV promoter) in HEK293T reporter cell line; assay: TAD-seq pooled activation screen of 60-aa fragments fused to PYL1; details: for Hit high GFP: high GFP population (top 1%); for logFC high GFP / logFC medium GFP: log 2 fold change of counts, 100 μM ABA 48 hours; for logFC high GFP: sorted high GFP cells (top 1%) vs unsorted cells; for logFC medium GFP: sorted medium GFP cells (top 2-5%) vs unsorted cells; for Hit medium GFP: medium GFP population (top 2-5%)
Summary of the method: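 60-aa tiles at 20-aa steps from 75 activator proteins, C-terminally fused to PYL1, lentivirally transduced at low MOI into reporter cells co-expressing ABI-dCas9 and promoter gRNA. Recruitment induced with 100 μM abscisic acid for 48 h (DMSO control). Top 1% and next 4% GFP cells sorted; fragments quantified by sequencing, two replicates.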

[3] = test system: EGFP reporter (7×TetO array, basal CMV promoter) in HEK293T reporter cell line; assay: Arrayed recruitment assay, PYL1 fusions individually recruited to reporter via ABI1-dCas9 with ABA; design: key to independently validated as transactivating fragment: Fragments marked with * were independently validated; details: for independently validated as transactivating fragment: fragment fused to PYL1, arrayed format; for activation of the EGFP reporter when individually tested: PYL1 fusion, ABA 48 hours, flow cytometry
Text: Treatment of cells with abscisic acid (ABA) induces an interaction between ABI1 and PYL1, thereby recruiting the potential transcriptional activator to a specific genomic locus defined by the guide RNA (gRNA). As a reporter, a HEK293T cell line that contains a stably integrated construct with a 7×TetO array and a basal CMV promoter driving the expression of EGFP was used (Gao et al., 2016). A monoclonal cell line that expresses ABI1-dCas9 and a single gRNA targeting TetO was generated by lentiviral infection.
as §1

Compound | effect of inhibitor on activity of the activators ([1]; 100 nM flavopiridol, 300 nM JQ1, 1 μM A-485, 2.5 μM CX-4945, 3 μM AZ191, 100 μM ABA 48 hours) | effect of inhibitor on activity of DCAF7 and NCKIPSD ([1]; 3 μM AZ191) | Hit high GFP [2] | logFC high GFP [2] | logFC medium GFP [2] | Hit medium GFP [2] | independently validated as transactivating fragment [3] | activation of the EGFP reporter when individually tested [3] | enrichment compared to the unsorted fragment library ([2]; high GFP and medium GFP populations)
COc1cc(N2CCN(C)CC2)ccc1Nc1nccc(-c2cn(C)c3cnccc23)n1 [AZ191] | slightly attenuating the activity of most activators | not affected | – | – | – | – | – | – | –
ATF6-2: 60-aa TAD-seq fragment of ATF6 (HRLDEDWDSALFAELGYFTDTDELQLEAANETYENNFDNLDFDLDLVPWESDIWDINNQI; listed as Homo sapiens) | – | – | hit | 4.688 | 1.477 | hit | ATF6-2* | – | –
ATXN7L3-1: 60-aa TAD-seq fragment of ATXN7L3 (MKMEEMSLSGLDNSKLEAIAQEIYADLVEDSCLGFCFEVHRAVKCGYFFLDDTDPDSMKD; listed as Homo sapiens) | – | – | hit | 1.638 | 1.684 | hit | 1* | – | –
BRD8-25: 60-aa TAD-seq fragment of BRD8 (GEELDFETVGDIIAIIEDKVDDHPEVLDVAAVEAALSFCEENDDPQSLPGPWEHPIQQER; listed as Homo sapiens) | – | – | hit | 1.567 | 1.834 | hit | BRD8-25* | – | –
C3orf62-12: 60-aa TAD-seq fragment of C3orf62 (QDSPFKEEAWALLMDKSPQKATDADPGSLKQAFDDHNIVETVLDLEEDYNVMTSFKYQIE; listed as Homo sapiens) [Fragment C3orf62-12] | – | – | hit | 6.493 | −0.6067 | – | 12* | – | –
CBX2: CBX-C domain of CBX2 (SASPPSTGQNPSVSVQTSQDWKPTRSLIEHVFVTDVTANLITVTVKESPTSVGFFNLRHY; listed as Homo sapiens) | – | – | – | – | – | – | – | the most potent activator | –
CBX8: CBX-C domain of CBX8 (RPSLIARIPVARILGDPEEESWSPSLTNLEKVVVTDVTSNFLTVTIKESNTDQGFFKEKR; listed as Homo sapiens) | – | – | – | – | – | – | – | activated the reporter weakly | –
CITED1-8: 60-aa TAD-seq fragment of CITED1 (ESLSPSAGAQSPAIIDSDPVDEEVLMSLVVELGLDRANELPELWLGQNEFDFTADFPSSC; listed as Homo sapiens) | – | – | hit | 6.826 | −1.166 | – | 8* | – | –
CITED2-12: 60-aa TAD-seq fragment of CITED2 (AMLPPNVIDTDFIDEEVLMSLVIEMGLDRIKELPELWLGQNEFDFMTDFVCKQQPSRVSC; listed as Homo sapiens) | – | – | hit | 6.148 | −0.9005 | – | 12* | – | –
FAM90A1-20: 60-aa TAD-seq fragment of FAM90A1 (HPAASHDGAQPLRVLFRRLENGRWSSSLLTAPSFHSPEKPGAFLAQSPHVSEKSEGPCVR; listed as Homo sapiens) | – | – | hit | 3.017 | 1.616 | hit | 20* | – | –
HOXB2: HOX family transcription factor tested as PYL1 fusion | – | – | – | – | – | – | – | characterized as activators | –
KLF7-1: 60-aa TAD-seq fragment of KLF7 (MDVLASYSIFQELQLVHDTGYFSALPSLEETWQQTCLELERYLQTEPRRISETFGEDLDC; listed as Homo sapiens) | – | – | hit | 5.998 | 1.29 | hit | KLF7-1* | – | –
VP64: synthetic transactivator, four tandem copies of the viral VP16 transactivation motif (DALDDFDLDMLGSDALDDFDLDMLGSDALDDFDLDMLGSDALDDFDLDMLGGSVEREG; listed as Homo sapiens) [reference compound] | – | – | hit | 5.476 | 2.374 | – | – | robust induction of GFP | enriched in the high GFP population but depleted in the medium GFP population
YAF2-6: 60-aa TAD-seq fragment of YAF2 (EKKDKVEKEKSEKETTSKKNSHKKTRPRLKNVDRSSAQHLEVTVGDLTVIITDFKEKTKS; listed as Homo sapiens) | – | – | hit | 4.316 | 1.771 | hit | – | – | –
YAF2-7: 60-aa TAD-seq fragment of YAF2 (SHKKTRPRLKNVDRSSAQHLEVTVGDLTVIITDFKEKTKSPPASSAASADQHSQSGSSSD; listed as Homo sapiens) | – | – | hit | 4.987 | 1.828 | hit | YAF2-7* | – | –
YAF2: YAF2_RYBP domain of YAF2; same SEQ ID NO as YAF2-7 (SHKKTRPRLKNVDRSSAQHLEVTVGDLTVIITDFKEKTKSPPASSAASADQHSQSGSSSD; listed as Homo sapiens) | – | – | – | – | – | – | – | robustly activated the reporter | –
ZXDC-12: 60-aa TAD-seq fragment of ZXDC (SPAEQHGAQDTELSAGTGNFYLESGGSARTDYRAIQLAKEKKQRGAGSNAGASQSTQRKI; listed as Homo sapiens) | – | – | hit | 3.966 | 2.496 | hit | ZXDC-12* | – | –
ZXDC-13: 60-aa TAD-seq fragment of ZXDC (YLESGGSARTDYRAIQLAKEKKQRGAGSNAGASQSTQRKIKEGKMSPPHFHASQNSWLCG; listed as Homo sapiens) | – | – | hit | 2.377 | 1.734 | hit | – | – | –
ZXDC-16: 60-aa TAD-seq fragment of ZXDC (SLVVPSGGRPGPAPAAGVQCGAQGVQVQLVQDDPSGEGVLPSARGPATFLPFLTVDLPVY; listed as Homo sapiens) | – | – | – | 0.4785 | 0.7293 | hit | – | – | –
p300: known transcriptional activator p300 fused to PYL1 [reference compound] | – | – | – | – | – | – | – | robust induction of GFP | –
